Structures are written as SMILES.

A word on the melting point: it is the temperature, or range, at which the solid turns liquid.

As to `CCOC(=O)Cc1ccc(Nc2ncc3c(n2)N(C)C(=O)N(c2c(Cl)cccc2Cl)C3)cc1`, the melting point was in the range of 211 to 212 °C.

In turn, `COC(=O)c1cc(I)cc(OC)c1O` came in with a melting point of 104 °C. The figure for `CC(C)CCS(=O)(=O)CC[C@H](O)[C@@H](N)CC(C)C` is 125 to 126 °C; for `CC(C)COC(=O)CCC1NCC(=O)N1` (stereo not given) it is 50 to 52 °C. The figure for `OCc1cccc2cc(-c3ccccc3)oc12` is 118 °C. The value for `O=C(O)C(=Cc1ccc(OCc2ccccc2)cc1OCc1ccccc1)Cc1ccccc1` was 175 to 176 °C; that for `ON=C1CCC(c2ccc(Cl)c(Cl)c2)c2ccccc21` (stereo not given) was 159 to 162 °C; that for `Cc1nc(Cc2ccc([N+](=O)[O-])cc2)no1` was 66 to 67 °C. `NC(=O)CN(c1ccc(Cl)cc1C(O)c1ccccc1Cl)S(=O)(=O)c1ccc(Cl)c(Cl)c1` (stereo not given) showed a melting point of 135 °C. `C#CCC1(C2CCC3C(O[Si](C)(C)C(C)(C)C)CCCC32C)CC1` (stereo not given): the melting point is 49 to 50 °C. As to `COc1cc2cc(N)cnc2cc1F`, the melting point was found to be 153 °C. For the compound `N#CCCNC(=O)c1cccc(-c2cccc(Oc3ccccc3Cl)n2)c1`, the melting point was 82 to 83 °C. The value for `N#Cc1ccc(-c2nc(Cl)c3c(n2)CCCC3)cc1` was 190 °C; that for `COC(=O)c1cc(OP(=S)(OC)OC)c(C(=O)OC)s1` was 71 °C. The value for `Clc1ccc(Nc2nc3ccccc3o2)c(Cl)c1` was 98 to 99 °C. The value for `COc1ccc2c(c1)c1c(n2Cc2ccccc2)CCCC1C(N)=O` (stereo not given) was 154 to 156 °C. In turn, `O=C(O)C1CCc2c(OCc3ccccc3)cccc21` (stereo not given) registered a melting point of 133 °C. `Nc1ncnc2cccc(Oc3ccc(F)cc3)c12` yielded a melting point of 188 to 190 °C. `CC(C)(C)OC(=O)NC[C@H]1C[C@H]1CON1C(=O)c2ccccc2C1=O` (relative stereo) showed a melting point of 96 to 97 °C.

The compound `NS(=O)(=O)c1ccc(S(=O)(=O)CCCO)c(C(=O)O)c1` registered a melting point of 170 °C. The value for `CC(NC(=O)NO)c1ccc2ccccc2c1` (stereo not given) was 156 to 157 °C; that for `ClCCCOc1ccccc1Cc1cccc2[nH]ccc12` was 75 °C; that for `COCCCN(c1nc(Cl)nc(N(CCCOC)C2CC(C)(C)NC(C)(C)C2)n1)C1CC(C)(C)NC(C)(C)C1` was 160 to 161 °C.

The compound `Cc1nc(OC[C@@H]2COC(C)(C)O2)c(C#N)c(N2CCc3ccccc3CC2)n1` came in with a melting point of 110 to 112 °C. The figure for `CC1(C)CN(C(=O)c2cc3c(C(=O)OC(C)(C)C)ncn3c3ccc(Cl)cc23)CC(C)(C)N1` is 241 to 242 °C; for `COc1ccc(Cc2cc3c(cc2OC)OCO3)cc1` it is 56 to 57 °C. Compound `CC=CC=CCOC(=O)C1=C(C)NC(C)=C(C(=O)OC)C1c1cccc([N+](=O)[O-])c1` (stereo not given) came in with a melting point of 135 to 136 °C.

`Nc1ccc(NCCCNc2cccc3c2C(=O)c2ccccc2C3=O)cc1` showed a melting point of 183 to 185 °C. The value for `CC(C)(C)ON=C1CCC(NC(=O)N2CCn3c(Cl)c(-c4cccc(F)c4)c(C(N)=O)c3C2)CC1` (stereo not given) was 195 to 198 °C; that for `CC1=Nc2ccccc2CC(c2ccsc2C)N1C` (stereo not given) was 91 to 92 °C; that for `O=C(O)c1ccc(CCCC2SCC(=O)N2CCC2(O)CCCCCC2)cc1` (stereo not given) was 146 to 148 °C. The figure for `NC(=O)Cc1cccc2c(=O)cc(C3=CCCCC3)oc12` is 244 to 245 °C; for `Nc1ncc(-c2cc(Cl)cc(Cl)c2Cl)c(N)n1` it is 246 to 249 °C. In turn, `N#Cc1cc(C(=O)NNC(=O)c2occc2-c2cccs2)ccc1O` came in with a melting point of 258 to 259 °C. The figure for `CN(C)c1ccc(C(=C2SCCCS2)c2ccccc2)cc1` is 172 to 174 °C; for `COCOc1cc(/C=C/C(=O)/C=C/c2cc(OCOC)cc(OCOC)c2)cc(OCOC)c1` it is 90 to 92 °C; for `NC(=O)c1c(Cl)c(-c2ccccc2)n2c1CN(C(=O)CCC1CCCC1)CC2` it is 172 to 174 °C. The value for `CC(COc1ccc(-n2nc3c(cc2=O)CCc2ccc(F)cc2-3)cc1)N(C)C` (stereo not given) was 178 to 180 °C.

`FC1(c2cn(-c3ccc(Br)cc3)nn2)CN2CCC1CC2` (stereo not given) gave a melting point of 127 °C. The value for `COc1cccc(NC(=S)NC(NC(=O)c2ccc(C)cc2)C(F)(F)F)c1` (stereo not given) was 206 to 208 °C. `Cc1c(CC(=O)NCCCO)cc(-c2ccc(S(C)(=O)=O)cc2)n1-c1ccc(F)cc1` returned a melting point of 105 °C.

`CC(F)=C1CCC2C3CC=C4CC(O)CCC4(C)C3CCC12C` (stereo not given) returned a melting point of 129 to 133 °C. The value for `OCCCCCCCCOc1ccc2ccccc2c1` was 67 to 69 °C; that for `CC(C)(C)C(=O)Cn1ncc(-c2ccc(S(C)(=O)=O)cc2)c(-c2ccc(F)cc2)c1=O` was 168 to 170 °C; that for `CN(C)CCCn1c(-c2ccc(Br)cc2)cc2c1CCSC2` was 88 to 90 °C.

As to `CCN(CCOc1cccnc1[N+](=O)[O-])CCN1C(=O)c2ccccc2C1=O`, the melting point is 124 to 126 °C. The value for `CCCSc1ccc(C(=O)OC)nc1` was 33 to 35 °C; that for `CC(Cl)C(=O)N1c2ccccc2C(=O)Nc2cccnc21` (stereo not given) was 215 to 218 °C; that for `CCOC(=O)c1n[nH]c(C(=O)OCC)c1C(=O)c1ccc(Cl)cc1[N+](=O)[O-]` was 168 °C. `CCCCc1nc2c(N)nc3ccc(O)cc3c2n1CCCCNC(=O)c1ccccc1` had a melting point of 188 to 190 °C.

With `O=C(O)Cc1cc(Cl)c2c(c1)CCC(c1ccccc1F)N2` (stereo not given), the melting point lay within 127 to 129 °C. The figure for `CCn1cc(C(=O)NN)c(=O)c2ccc(-c3ccncc3)cc21` is 274 to 275 °C; for `COc1ccc(C(=O)Nc2cccnc2Cl)c2c1oc1ccccc12` it is 192 °C; for `COc1ccc(-c2nc([N+](=O)[O-])n(C(=O)c3ccccc3)c2-c2ccc(OC)cc2)cc1` it is 161 to 163 °C. In the case of `C=C[C@@H]1O[C@](C#CC2CC2)(C(F)(F)F)c2c(ccc(F)c2F)NC1=O` (relative stereo), the melting point was in the range of 171 to 172 °C.

The compound `Clc1cnc(Oc2cccc(OCc3ccc(Cl)cc3Cl)c2)nc1` gave a melting point of 110 °C.

`Cc1ccc(S(N)(=O)=O)cc1C(O)CN=[N+]=[N-]` (stereo not given) yielded a melting point of 98 °C. `CC(=O)c1c(C)[nH]c(-c2cccc(C)c2)c1N` gave a melting point of 195 to 197 °C. The value for `CCOC(=O)C(=O)Nc1cccnc1` was 98 to 100 °C; that for `CC1Oc2cc(F)ccc2NC1=O` (stereo not given) was 166 to 168 °C. The figure for `CCOC(=O)C1(C)C=C(Cl)C2=NCN(C)C2=N1` (stereo not given) is 56 to 58 °C; for `CCC12CCC3C4CCC(=O)C=C4CCC3C1CCC2OC(=O)CCC1CCCC1` (stereo not given) it is 88 to 89 °C. In turn, `Cc1ccc(C)c(Oc2noc(=O)n2S(=O)(=O)N(C)C)c1` gave a melting point of 101 to 103 °C. For the compound `Cc1noc(-c2cccc(CN3CCN(c4ccc(NC(=O)OC(C)(C)C)cc4)CC3)c2)n1`, the melting point was 159 to 161 °C.

In the case of `CCOC(=O)C1(O)C=CC(N=Nc2ccccc2)=CC1` (stereo not given), the melting point was 153 to 154 °C.

The values above are taken from a melting point compilation (Tetko et al.; mined from patent text by program, amines drawn as free bases though some values may be those of a salt).
